From publication PMC10418426, “A Comprehensive Technology Platform for the Rapid Discovery of Peptide Inhibitors against SARS-CoV-2 Pseudovirus Infection” (International Journal of Molecular Sciences, 2023)
Starred links: 1 amine or outer side, 2 acyl side, 3 side chain; linkers in the order of their positions; H or OH if unused. Positions of bridges follow the written chain, without caps; N, C: chain ends. Residues, ends and D or L forms follow the SMILES beside them. mXylylene = c1cc(C[*:1])cc(C[*:2])c1

Molecular target: T1, Wuhan variant RBD-Fc / ACE2 interaction (Homo sapiens, UniProt Q9BYF1)
T1 construct: purchased RayBiotech
Test: biochemical
Settings: read-out: percentage of inhibition of RBD binding to ACE2

## C[C@@H](O)[C@@H]1NC(=O)[C@@H]2CCCN2C(=O)[C@H](CCC(N)=O)NC(=O)[C@@H](N)CSCc2cccc(c2)CSC[C@@H](C(N)=O)NC(=O)[C@H](CCC(N)=O)NC(=O)[C@H](Cc2c[nH]c3ccccc23)NC(=O)CNC(=O)[C@H](CCCCN)NC(=O)CNC(=O)[C@H](CC(N)=O)NC1=O [c9_05] (H-CQPTNGKGWQC-NH2; linker 1-11 via mXylylene)
  inhibition at 100 µM: 78%
